Earlier results on 1 compound are cited in patent US7592342B2, “Quinoxaline derivatives as PI3 kinase inhibitors” (SmithKline Beecham Corporation, priority 2007, dated 2009).

Structures are written as SMILES.

The series deals with CK2 protein kinase (Homo sapiens, UniProt P68400). Particulars: LY294002, literature.
Chain of CK2 protein kinase (P68400 whole entry): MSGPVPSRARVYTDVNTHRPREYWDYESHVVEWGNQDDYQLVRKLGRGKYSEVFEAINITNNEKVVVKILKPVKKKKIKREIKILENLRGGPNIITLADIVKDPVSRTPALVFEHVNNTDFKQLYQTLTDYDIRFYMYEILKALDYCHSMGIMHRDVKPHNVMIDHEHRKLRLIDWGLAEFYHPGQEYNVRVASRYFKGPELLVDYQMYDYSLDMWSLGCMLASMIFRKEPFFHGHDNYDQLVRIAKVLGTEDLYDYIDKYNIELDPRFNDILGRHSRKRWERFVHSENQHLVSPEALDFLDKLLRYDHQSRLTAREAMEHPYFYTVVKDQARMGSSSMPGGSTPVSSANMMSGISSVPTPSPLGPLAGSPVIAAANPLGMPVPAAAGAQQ

With `O=c1cc(N2CCOCC2)oc2c(-c3ccccc3)cccc12` [LY294002], the IC50 was 5 to 10 µM.
